Test system: MV-4-11 cells
Assay: Gene expression microarray analysis (Affymetrix PrimeView) and GSEA
Assay type: cell-based, human
Set-up: RFU PODN (11730768_x_at) / Fold change /veh PODN (11730768_x_at) / RFU LINC00158 (11744669_a_at) / Fold change /veh LINC00158 (11744669_a_at) / RFU DUSP10 (11751237_a_at) / Fold change /veh DUSP10 (11751237_a_at) / RFU ID3 (11757404_x_at) / Fold change /veh ID3 (11757404_x_at) / RFU PLEKHG5 (11737974_s_at) / Fold change /veh PLEKHG5 (11737974_s_at) / RFU LRRC4B (11730491_at) / Fold change /veh LRRC4B (11730491_at) / RFU GIMAP4 (11747438_a_at) / Fold change /veh GIMAP4 (11747438_a_at) / RFU KRT8 (11758183_x_at) / Fold change /veh KRT8 (11758183_x_at) / RFU CNN1 (11734310_a_at) / Fold change /veh CNN1 (11734310_a_at) / RFU VPS37D (11726825_at) / Fold change /veh VPS37D (11726825_at) / RFU C10orf10 (11716522_x_at) / Fold change /veh C10orf10 (11716522_x_at) / RFU KIR2DL2 /// KIR2DL4 /// KIR2DL5A /// KIR2DL5B /// KIR2DS1 /// KIR2DS2 /// KIR2DS3 /// KIR2DS4 /// KIR3DL3 /// KIR3DL3 /// KIR3DS1 (11738374_at) / Fold change /veh KIR2DL2 /// KIR2DL4 /// KIR2DL5A /// KIR2DL5B /// KIR2DS1 /// KIR2DS2 /// KIR2DS3 /// KIR2DS4 /// KIR3DL3 /// KIR3DL3 /// KIR3DS1 (11738374_at) / RFU C1QL1 (11718748_at) / Fold change /veh C1QL1 (11718748_at) / RFU TMPRSS4 (11747572_a_at) / Fold change /veh TMPRSS4 (11747572_a_at) / RFU HAMP (11756126_x_at) / Fold change /veh HAMP (11756126_x_at) / RFU RNFT2 (11725882_a_at) / Fold change /veh RNFT2 (11725882_a_at) / RFU NR4A2 (11747474_a_at) / Fold change /veh NR4A2 (11747474_a_at) / RFU ABCC12 (11746883_a_at) / Fold change /veh ABCC12 (11746883_a_at) / RFU TMEM136 (11760407_x_at) / Fold change /veh TMEM136 (11760407_x_at) / RFU CLDN22 /// WWC2 (11732394_at) / Fold change /veh CLDN22 /// WWC2 (11732394_at) / RFU HLA-DPB1 (11760878_x_at) / Fold change /veh HLA-DPB1 (11760878_x_at) / RFU SPINT1 (11716480_a_at) / Fold change /veh SPINT1 (11716480_a_at) / RFU GAP43 (11754022_s_at) / Fold change /veh GAP43 (11754022_s_at) / RFU A4GNT (11735810_at) / Fold change /veh A4GNT (11735810_at) / RFU PRB3 (11715151_x_at) / Fold change /veh PRB3 (11715151_x_at) / RFU TUBB4B (11761932_at) / Fold change /veh TUBB4B (11761932_at) / RFU CAPN14 (11732068_a_at) / Fold change /veh CAPN14 (11732068_a_at) / RFU TMCC2 (11721928_a_at) / Fold change /veh TMCC2 (11721928_a_at) / RFU IRGQ (11745062_a_at) / Fold change /veh IRGQ (11745062_a_at) / RFU FAM174B (11720279_a_at) / Fold change /veh FAM174B (11720279_a_at) / RFU TMPRSS4 (11748680_a_at) / Fold change /veh TMPRSS4 (11748680_a_at) / RFU FAM212B (11763350_a_at) / Fold change /veh FAM212B (11763350_a_at) / RFU PLEKHG5 (11743358_a_at) / Fold change /veh PLEKHG5 (11743358_a_at) / RFU ZSCAN30 (11745921_a_at) / Fold change /veh ZSCAN30 (11745921_a_at) / RFU CMKLR1 (11741424_a_at) / Fold change /veh CMKLR1 (11741424_a_at) / RFU LOC101060620 /// MAPK8IP1 (11723275_at) / Fold change /veh LOC101060620 /// MAPK8IP1 (11723275_at) / RFU SPTSSB (11747773_x_at) / Fold change /veh SPTSSB (11747773_x_at) / RFU PRSS12 (11739890_at) / Fold change /veh PRSS12 (11739890_at) / RFU BIN1 (11741810_x_at) / Fold change /veh BIN1 (11741810_x_at) / RFU WNT11 (11732464_a_at) / Fold change /veh WNT11 (11732464_a_at) / RFU C10orf10 (11716521_a_at) / Fold change /veh C10orf10 (11716521_a_at) / RFU C5orf56 (11738089_at) / Fold change /veh C5orf56 (11738089_at) / RFU CYB561 (11721691_x_at) / Fold change /veh CYB561 (11721691_x_at) / RFU ANKRD19P (11752326_a_at) / Fold change /veh ANKRD19P (11752326_a_at) / RFU OR2T12 /// OR2T33 /// OR2T8 (11738714_s_at) / Fold change /veh OR2T12 /// OR2T33 /// OR2T8 (11738714_s_at) / RFU VCAN (11748164_a_at) / Fold change /veh VCAN (11748164_a_at) / RFU JSRP1 (11732532_at) / Fold change /veh JSRP1 (11732532_at) / RFU KRTAP10-11 (11738290_x_at) / Fold change /veh KRTAP10-11 (11738290_x_at) / RFU MYO3A (11730013_a_at) / Fold change /veh MYO3A (11730013_a_at) / RFU EBF3 (11725865_a_at) / Fold change /veh EBF3 (11725865_a_at) / RFU CAMK2N1 (11719241_x_at) / Fold change /veh CAMK2N1 (11719241_x_at) / RFU C5orf56 (11738088_a_at) / Fold change /veh C5orf56 (11738088_a_at) / RFU OLFML3 (11715873_a_at) / Fold change /veh OLFML3 (11715873_a_at) / RFU LOC100653217 /// NTM (11731650_a_at) / Fold change /veh LOC100653217 /// NTM (11731650_a_at) / RFU MAPK11 (11762145_a_at) / Fold change /veh MAPK11 (11762145_a_at) / RFU FIZ1 (11724087_x_at) / Fold change /veh FIZ1 (11724087_x_at) / RFU OASL (11726364_x_at) / Fold change /veh OASL (11726364_x_at) / RFU SOX15 (11748057_x_at) / Fold change /veh SOX15 (11748057_x_at) / RFU CD79A (11719716_a_at) / Fold change /veh CD79A (11719716_a_at) / RFU HIST1H1D (11736915_at) / Fold change /veh HIST1H1D (11736915_at) / RFU CASKIN2 (11723855_a_at) / Fold change /veh CASKIN2 (11723855_a_at) / RFU LOC730098 (11760151_x_at) / Fold change /veh LOC730098 (11760151_x_at) / RFU OR4N2 (11742367_at) / Fold change /veh OR4N2 (11742367_at) / RFU PRRT2 (11749266_a_at) / Fold change /veh PRRT2 (11749266_a_at) / RFU SNX32 (11753110_a_at) / Fold change /veh SNX32 (11753110_a_at) / RFU CDHR5 (11726645_a_at) / Fold change /veh CDHR5 (11726645_a_at) / RFU RCAN1 (11760418_a_at) / Fold change /veh RCAN1 (11760418_a_at) / RFU FAM167A (11723789_a_at) / Fold change /veh FAM167A (11723789_a_at) / RFU FAM26E (11764081_at) / Fold change /veh FAM26E (11764081_at) / RFU ISYNA1 (11749810_s_at) / Fold change /veh ISYNA1 (11749810_s_at) / RFU ACY1 (11761880_at) / Fold change /veh ACY1 (11761880_at) / RFU 11764098_at / Fold change /veh 11764098_at / RFU SAMD14 (11745864_x_at) / Fold change /veh SAMD14 (11745864_x_at) / RFU NPB (11741838_a_at) / Fold change /veh NPB (11741838_a_at) / RFU TMPRSS6 (11731388_a_at) / Fold change /veh TMPRSS6 (11731388_a_at) / RFU KRTAP10-2 (11738614_at) / Fold change /veh KRTAP10-2 (11738614_at) / RFU ARHGAP8 /// PRR5-ARHGAP8 (11727945_x_at) / Fold change /veh ARHGAP8 /// PRR5-ARHGAP8 (11727945_x_at) / RFU KRTAP5-7 /// NADSYN1 (11734609_at) / Fold change /veh KRTAP5-7 /// NADSYN1 (11734609_at) / RFU RASL12 (11751679_a_at) / Fold change /veh RASL12 (11751679_a_at) / RFU CDKN2B (11736163_a_at) / Fold change /veh CDKN2B (11736163_a_at) / RFU PRF1 (11729649_at) / Fold change /veh PRF1 (11729649_at) / RFU, ZNF638 /// ZNF638-IT1 / Fold change vs veh, ZNF638 /// ZNF638-IT1 / RFU, PANK3 / Fold change vs veh, PANK3 / RFU, SH3YL1 / Fold change vs veh, SH3YL1 / RFU, ZEB2 / Fold change vs veh, ZEB2 / RFU, NRIP1 / Fold change vs veh, NRIP1 / RFU, PTTG1IP / Fold change vs veh, PTTG1IP / RFU, CAPN2 / Fold change vs veh, CAPN2 / RFU, MED14 / Fold change vs veh, MED14 / RFU, SNORA58 / Fold change vs veh, SNORA58 / RFU, C1orf63 / Fold change vs veh, C1orf63 / RFU, LRRFIP1 / Fold change vs veh, LRRFIP1 / RFU, NDUFAF7 / Fold change vs veh, NDUFAF7 / RFU, SLC12A2 / Fold change vs veh, SLC12A2 / RFU, IBTK / Fold change vs veh, IBTK / RFU, ESF1 / Fold change vs veh, ESF1 / Fold change vs veh, TMEM50B / RFU, TAOK1 / Fold change vs veh, TAOK1 / RFU, ACBD3 / Fold change vs veh, ACBD3 / RFU, TMA16 / Fold change vs veh, TMA16 / RFU, RWDD3 / Fold change vs veh, RWDD3 / RFU, BCAT1 / Fold change vs veh, BCAT1 / RFU, EDEM3 / Fold change vs veh, EDEM3 / RFU, TMEM33 / Fold change vs veh, TMEM33 / RFU, WDR75 / Fold change vs veh, WDR75 / RFU, AHCTF1 / Fold change vs veh, AHCTF1 / RFU, TFRC / Fold change vs veh, TFRC / RFU, ZDHHC17 / Fold change vs veh, ZDHHC17 / RFU, NOM1 / Fold change vs veh, NOM1 / RFU, ARL8B / Fold change vs veh, ARL8B / RFU, ZBTB11 / Fold change vs veh, ZBTB11 / RFU, TAMM41 / Fold change vs veh, TAMM41 / RFU, KIAA1704 /// LOC100996395 / Fold change vs veh, KIAA1704 /// LOC100996395 / RFU, ING1 / Fold change vs veh, ING1 / RFU, TRMT61B / Fold change vs veh, TRMT61B / RFU, FUBP3 / Fold change vs veh, FUBP3 / RFU, TP53 / Fold change vs veh, TP53 / RFU, TNKS2 / Fold change vs veh, TNKS2 / RFU, ZFP14 / Fold change vs veh, ZFP14 / RFU, ACTR2 / Fold change vs veh, ACTR2 / RFU, PPP3R1 / Fold change vs veh, PPP3R1 / RFU, PIK3R1 / Fold change vs veh, PIK3R1 / RFU, HNRNPA1 / Fold change vs veh, HNRNPA1 / RFU, RNF170 / Fold change vs veh, RNF170 / RFU, ZNF28 / Fold change vs veh, ZNF28 / RFU, RNGTT / Fold change vs veh, RNGTT / RFU, OGT / Fold change vs veh, OGT / RFU, BRD1 / Fold change vs veh, BRD1 / RFU, MARS / Fold change vs veh, MARS / RFU, ZNF655 / Fold change vs veh, ZNF655 / RFU, FAHD1 / Fold change vs veh, FAHD1 / RFU, BDP1 / Fold change vs veh, BDP1 / RFU, LRRCC1 / Fold change vs veh, LRRCC1 / RFU, ARID1A / Fold change vs veh, ARID1A / RFU, ZNF146 / Fold change vs veh, ZNF146 / RFU, ZNF330 / Fold change vs veh, ZNF330 / RFU, GPN3 / Fold change vs veh, GPN3 / RFU, C9orf123 / Fold change vs veh, C9orf123 / RFU, N4BP2L2 / Fold change vs veh, N4BP2L2 / RFU, ARFIP1 / Fold change vs veh, ARFIP1 / RFU, FAM179B / Fold change vs veh, FAM179B / RFU, BCL10 / Fold change vs veh, BCL10 / RFU, UHRF1BP1L / Fold change vs veh, UHRF1BP1L / RFU, BET1 / Fold change vs veh, BET1 / RFU, CNOT2 / Fold change vs veh, CNOT2 / RFU, ZNF268 / Fold change vs veh, ZNF268 / Fold change vs veh, ZNF507 / RFU, DGCR2 / Fold change vs veh, DGCR2 / RFU, WDSUB1 / Fold change vs veh, WDSUB1 / Fold change vs veh, HSP90B1 /// MIR3652 / RFU, ADSS / Fold change vs veh, ADSS / RFU, GK / Fold change vs veh, GK / RFU, ZNF148 / Fold change vs veh, ZNF148 / RFU, TAF9 / Fold change vs veh, TAF9 / RFU, SLC1A5 / Fold change vs veh, SLC1A5 / RFU, SLMO2 / Fold change vs veh, SLMO2 / RFU, ABCC4 / Fold change vs veh, ABCC4 / RFU, LOC101060439 /// RAP1B / Fold change vs veh, LOC101060439 /// RAP1B / RFU, RFX7 / Fold change vs veh, RFX7 / RFU, GTPBP10 / Fold change vs veh, GTPBP10 / RFU, CNEP1R1 / Fold change vs veh, CNEP1R1 / RFU, BIVM-ERCC5 /// ERCC5 / Fold change vs veh, BIVM-ERCC5 /// ERCC5 / RFU, ILF3 / Fold change vs veh, ILF3 / RFU 11762660_at / Fold change /veh 11762660_at / RFU VCAN (11757783_s_at) / Fold change /veh VCAN (11757783_s_at) / RFU DDX43 (11728927_at) / Fold change /veh DDX43 (11728927_at) / RFU KRT8 (11758188_x_at) / Fold change /veh KRT8 (11758188_x_at) / RFU NKD1 (11759106_at) / Fold change /veh NKD1 (11759106_at) / RFU SRD5A1 (11742802_a_at) / Fold change /veh SRD5A1 (11742802_a_at) / RFU TPSAB1 /// TPSB2 (11721975_s_at) / Fold change /veh TPSAB1 /// TPSB2 (11721975_s_at) / RFU GSTM3 (11746129_a_at) / Fold change /veh GSTM3 (11746129_a_at) / RFU IL23R (11737362_x_at) / Fold change /veh IL23R (11737362_x_at) / RFU TMEM51 (11727254_a_at) / Fold change /veh TMEM51 (11727254_a_at) / RFU PIWIL2 (11732686_x_at) / Fold change /veh PIWIL2 (11732686_x_at) / RFU ORM1 (11744905_x_at) / Fold change /veh ORM1 (11744905_x_at) / RFU CCDC152 (11743942_at) / Fold change /veh CCDC152 (11743942_at) / RFU ECM1 (11717891_a_at) / Fold change /veh ECM1 (11717891_a_at) / RFU IL23R (11748794_a_at) / Fold change /veh IL23R (11748794_a_at) / RFU TNFAIP8L3 (11732012_x_at) / Fold change /veh TNFAIP8L3 (11732012_x_at) / RFU MBOAT4 (11741988_at) / Fold change /veh MBOAT4 (11741988_at) / RFU 11764193_at / Fold change /veh 11764193_at / RFU TMEM53 (11763286_at) / Fold change /veh TMEM53 (11763286_at) / RFU MAGEB2 (11727129_at) / Fold change /veh MAGEB2 (11727129_at) / RFU TMEM200A (11744735_a_at) / Fold change /veh TMEM200A (11744735_a_at) / RFU CCDC152 (11751479_a_at) / Fold change /veh CCDC152 (11751479_a_at) / RFU FAM211A (11726209_a_at) / Fold change /veh FAM211A (11726209_a_at) / RFU RGS16 (11746705_a_at) / Fold change /veh RGS16 (11746705_a_at) / RFU VCAN (11755009_s_at) / Fold change /veh VCAN (11755009_s_at) / RFU RHOB (11743442_s_at) / Fold change /veh RHOB (11743442_s_at) / RFU RGS16 (11720943_a_at) / Fold change /veh RGS16 (11720943_a_at) / RFU RGS16 (11720944_at) / Fold change /veh RGS16 (11720944_at) / RFU, VPS4B / Fold change vs veh, VPS4B / RFU, CREB1 / Fold change vs veh, CREB1 / RFU, DNAJC13 / Fold change vs veh, DNAJC13 / RFU, GNAQ / Fold change vs veh, GNAQ / RFU, CDK5R1 / Fold change vs veh, CDK5R1 / RFU, ZRANB3 / Fold change vs veh, ZRANB3 / RFU, CUL4A / Fold change vs veh, CUL4A / RFU, CCNY / Fold change vs veh, CCNY / RFU, UFL1 / Fold change vs veh, UFL1 / RFU, COG3 / Fold change vs veh, COG3 / RFU, DIAPH2 / Fold change vs veh, DIAPH2 / RFU, SKA2 / Fold change vs veh, SKA2 / RFU, AFF3 / Fold change vs veh, AFF3 / RFU, LMF1 / Fold change vs veh, LMF1 / RFU, IPO11 / Fold change vs veh, IPO11 / RFU, DFFB / Fold change vs veh, DFFB / RFU, FOXP1 / Fold change vs veh, FOXP1 / RFU, CARD8 / Fold change vs veh, CARD8 / RFU, STRN3 / Fold change vs veh, STRN3 / RFU, ADK / Fold change vs veh, ADK / RFU, RASSF2 / Fold change vs veh, RASSF2 / RFU, WIPF1 / Fold change vs veh, WIPF1 / RFU, LARP1B / Fold change vs veh, LARP1B / RFU, RASA1 / Fold change vs veh, RASA1 / RFU, RB1 / Fold change vs veh, RB1 / RFU, PPFIA1 / Fold change vs veh, PPFIA1 / RFU, MAT2A / Fold change vs veh, MAT2A / RFU, CCT5 / Fold change vs veh, CCT5 / RFU, WDR92 / Fold change vs veh, WDR92 / RFU, CUX1 / Fold change vs veh, CUX1 / RFU, TTC7A / Fold change vs veh, TTC7A / RFU, TMEM135 / Fold change vs veh, TMEM135 / RFU, DEPTOR / Fold change vs veh, DEPTOR / RFU, CPM / Fold change vs veh, CPM / RFU, DNAJB6 / Fold change vs veh, DNAJB6 / RFU, CACNA2D3 / Fold change vs veh, CACNA2D3 / RFU, DTX4 / Fold change vs veh, DTX4 / RFU, TFCP2 / Fold change vs veh, TFCP2 / RFU, GMCL1 /// GMCL1P1 / Fold change vs veh, GMCL1 /// GMCL1P1 / RFU, AEBP2 / Fold change vs veh, AEBP2 / RFU, SNHG1 /// SNORD22 /// SNORD25 /// SNORD26 /// SNORD27 /// SNORD28 /// SNORD29 /// SNORD31 / Fold change vs veh, SNHG1 /// SNORD22 /// SNORD25 /// SNORD26 /// SNORD27 /// SNORD28 /// SNORD29 /// SNORD31 / Fold change (Aza/veh), C12orf56 (ProbeSet 11735607_a_at) / Fold change (ACY-1035/veh), C12orf56 (ProbeSet 11735607_a_at) / Fold change (Aza/veh), FGFR1OP (ProbeSet 11751329_s_at) / Fold change (ACY-1035/veh), FGFR1OP (ProbeSet 11751329_s_at) / Fold change (Aza/veh), VPS36 (ProbeSet 11739960_a_at) / Fold change (ACY-1035/veh), VPS36 (ProbeSet 11739960_a_at) / RFU SYPL1 (11715823_x_at) / Fold change /veh SYPL1 (11715823_x_at) / RFU IGFBP7 (11715501_s_at) / Fold change /veh IGFBP7 (11715501_s_at) / RFU REEP3 (11722064_at) / Fold change /veh REEP3 (11722064_at) / RFU IGLL1 (11728026_x_at) / Fold change /veh IGLL1 (11728026_x_at): dose or concentration left out as unconfirmed
Settings: MV-4-11 cells, 48 hours

Compound: Nc1ccc(-c2cccs2)cc1NC(=O)c1ccc2c(c1)cc(C1CC1)n2CCN1CCOCC1 [ACY-1035]
- Fold change /veh SOX15 (11748057_x_at): 0.91

From article PMC5218480 (PLoS ONE, 2017)
